Test results from the CheMixHub viscosity set.

Test: xn = mol fraction of the nth substance listed

CO + O
Conditions | viscosity [mPa·s]
303.15 K, 101.3 kPa, x2 = 0.5 | 1.177
303.15 K, 101.3 kPa, x2 = 0.5599 | 1.263
303.15 K, 101.3 kPa, x2 = 0.6148 | 1.306
303.15 K, 101.3 kPa, x2 = 0.7 | 1.39
303.15 K, 101.3 kPa, x2 = 0.7982 | 1.308
303.15 K, 101.3 kPa, x2 = 0.8 | 1.361
303.15 K, 101.3 kPa, x2 = 0.85 | 1.284
303.15 K, 101.3 kPa, x2 = 0.9043 | 1.108
303.15 K, 101.3 kPa, x2 = 0.95 | 0.999
303.15 K, 101.33 kPa, x2 = 0.1232 | 0.625
303.15 K, 101.33 kPa, x2 = 0.1599 | 0.679
303.15 K, 101.33 kPa, x2 = 0.2168 | 0.765
303.15 K, 101.33 kPa, x2 = 0.2992 | 0.874
303.15 K, 101.33 kPa, x2 = 0.3639 | 0.972
303.15 K, 101.33 kPa, x2 = 0.3948 | 1.021
303.15 K, 101.33 kPa, x2 = 0.4567 | 1.129
303.15 K, 101.33 kPa, x2 = 0.5837 | 1.31
303.15 K, 101.33 kPa, x2 = 0.8272 | 1.319
303.15 K, 101.33 kPa, x2 = 0.8782 | 1.213
303.15 K, 101.33 kPa, x2 = 0.886 | 1.185
303.15 K, 101.33 kPa, x2 = 0.9125 | 1.11
308.15 K, 101 kPa, x1 = 0.125 | 1.07
308.15 K, 101 kPa, x1 = 0.274 | 1.22
308.15 K, 101 kPa, x1 = 0.465 | 1.08
308.15 K, 101 kPa, x1 = 0.702 | 0.834
308.15 K, 101 kPa, x2 = 0.9413 | 0.9361
308.15 K, 101.3 kPa, x1 = 0.0588 | 0.894
308.15 K, 101.3 kPa, x1 = 0.1233 | 1.062
308.15 K, 101.3 kPa, x1 = 0.1943 | 1.172
308.15 K, 101.3 kPa, x1 = 0.2727 | 1.213
308.15 K, 101.3 kPa, x1 = 0.3599 | 1.18
313.15 K, 101 kPa, x1 = 0.055 | 0.78
313.15 K, 101 kPa, x1 = 0.129 | 0.974
313.15 K, 101 kPa, x1 = 0.176 | 1.021
313.15 K, 101 kPa, x1 = 0.232 | 1.078
313.15 K, 101 kPa, x1 = 0.256 | 1.067
313.15 K, 101 kPa, x1 = 0.487 | 0.973
313.15 K, 101 kPa, x1 = 0.541 | 0.911
313.15 K, 101 kPa, x1 = 0.625 | 0.815
313.15 K, 101 kPa, x1 = 0.642 | 0.807
313.15 K, 101 kPa, x1 = 0.903 | 0.545
313.15 K, 101.3 kPa, x2 = 0.0969 | 0.544
313.15 K, 101.3 kPa, x2 = 0.2006 | 0.643
313.15 K, 101.3 kPa, x2 = 0.3002 | 0.749
313.15 K, 101.3 kPa, x2 = 0.4001 | 0.861
313.15 K, 101.3 kPa, x2 = 0.5 | 0.945
313.15 K, 101.3 kPa, x2 = 0.6 | 1.022
313.15 K, 101.3 kPa, x2 = 0.7 | 1.091
313.15 K, 101.3 kPa, x2 = 0.8 | 1.054
313.15 K, 101.3 kPa, x2 = 0.85 | 0.995
313.15 K, 101.3 kPa, x2 = 0.9 | 0.907
313.15 K, 101.3 kPa, x2 = 0.95 | 0.788
318.15 K, 101 kPa, x1 = 0.125 | 0.832
318.15 K, 101 kPa, x1 = 0.274 | 0.952
318.15 K, 101 kPa, x1 = 0.465 | 0.868
318.15 K, 101 kPa, x1 = 0.702 | 0.69
318.15 K, 101 kPa, x2 = 0.9413 | 0.8181
323.15 K, 100 kPa, x1 = 0.2 | 0.832
323.15 K, 100 kPa, x1 = 0.3 | 0.86
323.15 K, 100 kPa, x1 = 0.4 | 0.848
323.15 K, 101 kPa, x1 = 0.055 | 0.64
323.15 K, 101 kPa, x1 = 0.129 | 0.785
323.15 K, 101 kPa, x1 = 0.176 | 0.818
323.15 K, 101 kPa, x1 = 0.232 | 0.857
323.15 K, 101 kPa, x1 = 0.256 | 0.849
323.15 K, 101 kPa, x1 = 0.487 | 0.796
323.15 K, 101 kPa, x1 = 0.541 | 0.746
323.15 K, 101 kPa, x1 = 0.625 | 0.678
323.15 K, 101 kPa, x1 = 0.642 | 0.673
323.15 K, 101 kPa, x1 = 0.903 | 0.475
323.15 K, 101.3 kPa, x1 = 0.9144 | 0.458
323.15 K, 101.3 kPa, x2 = 0.0969 | 0.47
323.15 K, 101.3 kPa, x2 = 0.2006 | 0.547
323.15 K, 101.3 kPa, x2 = 0.3002 | 0.628
323.15 K, 101.3 kPa, x2 = 0.4001 | 0.71
323.15 K, 101.3 kPa, x2 = 0.5 | 0.774
323.15 K, 101.3 kPa, x2 = 0.6 | 0.826
323.15 K, 101.3 kPa, x2 = 0.7 | 0.86
323.15 K, 101.3 kPa, x2 = 0.8 | 0.84
323.15 K, 101.3 kPa, x2 = 0.85 | 0.796
323.15 K, 101.3 kPa, x2 = 0.95 | 0.647
